In ChEMBL document CHEMBL3580557, “Anti-inflammatory Terpenoids from the Leaves and Twigs of Dysoxylum gotadhora” (J Nat Prod, 2015):

What was measured:
RAW264.7 [1] = test: Antiinflammatory activity in mouse RAW264.7 cells assessed as inhibition of LPS-induced nitric oxide production at 3.1 uM after 24 hrs by Griess assay relative to control; assay type: functional; details: RAW264.7, 24 h
RAW264.7 [2] = test: Antiinflammatory activity in mouse RAW264.7 cells assessed as inhibition of LPS-induced nitric oxide production at 6.3 uM after 24 hrs by Griess assay relative to control; assay type: functional; details: RAW264.7, 24 h
RAW264.7 [3] = test: Antiinflammatory activity in mouse RAW264.7 cells assessed as inhibition of LPS-induced nitric oxide production at 12.5 uM after 24 hrs by Griess assay relative to control; assay type: functional; details: RAW264.7, 24 h
RAW264.7 [4] = test: Antiinflammatory activity in mouse RAW264.7 cells assessed as inhibition of LPS-induced nitric oxide production at 25 uM after 24 hrs by Griess assay relative to control; assay type: functional; details: RAW264.7, 24 h
RAW264.7 [5] = test: Antiinflammatory activity in mouse RAW264.7 cells assessed as inhibition of LPS-induced nitric oxide production at 50 uM after 24 hrs by Griess assay relative to control; assay type: functional; details: RAW264.7, 24 h
RAW264.7 [6] = test: Antiinflammatory activity in mouse RAW264.7 cells assessed as inhibition of LPS-induced nitric oxide production after 24 hrs by Griess assay; assay type: functional, cell-based; details: RAW264.7, 24 h
RAW264.7 [7] = test: Cytotoxicity against mouse RAW264.7 cells assessed as cell viability after 16 hrs by MTT assay; assay type: cell-based; details: raw264.7, 16 h

SMILES | IC50 (RAW264.7 [6]) [µM] | inhibition at 3.1 µM (RAW264.7 [1]) [%] | inhibition at 6.3 µM (RAW264.7 [2]) [%] | inhibition at 12.5 µM (RAW264.7 [3]) [%] | inhibition at 25 µM (RAW264.7 [4]) [%] | inhibition at 50 µM (RAW264.7 [5]) [%] | Activity (RAW264.7 [7])
CC1(C)OC[C@@H]([C@H]2CC[C@@]3(C)[C@@H]4CC[C@H]5C(C)(C)C(=O)CC[C@@]56C[C@@]46CC[C@]23C)C[C@@H](O)[C@@H]1O | 41.5 | 11.3 | 4.5 | 13.5 | 28.3 | 58.9 | Non-toxic
COC(=O)/C=C(\C)CC[C@@]1(C)[C@H](C)CC[C@@]2(C)C(C)=CC(=O)C[C@H]12 | 45.2 | 19.4 | 19.9 | 24.8 | 35.3 | 56.6 | Non-toxic
COc1ccc2c(c1)c(CC(=O)O)c(C)n2C(=O)c1ccc(Cl)cc1 [INDOMETHACIN] | – | 21.5 | 24.5 | 38.5 | 44.3 | 57.9 | –

Further molecules by falling IC50 (RAW264.7 [6]), results first:

IC50 (RAW264.7 [6]) [µM] | SMILES | inhibition at 3.1 µM (RAW264.7 [1]) [%] | inhibition at 6.3 µM (RAW264.7 [2]) [%] | inhibition at 12.5 µM (RAW264.7 [3]) [%] | inhibition at 25 µM (RAW264.7 [4]) [%] | inhibition at 50 µM (RAW264.7 [5]) [%] | Activity (RAW264.7 [7])
27.4 | C[C@H](C[C@@H](O)[C@H](O)C(C)(C)O)[C@H]1CC[C@@]2(C)[C@@H]3CC[C@H]4C(C)(C)C(=O)CC[C@@]45C[C@@]35CC[C@]12C | 12.8 | 17.9 | 23.8 | 48.5 | 79.1 | Non-toxic
25.5 | CC(C)(O)[C@H]1OC[C@@H]([C@H]2CC[C@@]3(C)[C@@H]4CC[C@H]5C(C)(C)C(=O)CC[C@@]56C[C@@]46CC[C@]23C)C[C@@H]1O | 12.5 | 18.5 | 23.2 | 49 | 76.2 | Non-toxic
14.5 | C=C[C@@]1(C)CC(=O)[C@H]2[C@@H](CC[C@H]3C(C)(C)[C@@H](O)CC[C@]23C)C1 | 19.8 | 25.6 | 41.5 | 63.8 | 92.4 | Non-toxic
